14 molecules from ChEMBL document CHEMBL1122049, “Synthesis and in vitro antimicrobial activity of 5-substituted 2H-1,3,5-thiadiazine-2,4(3H)-diones” (1982) can be followed below.

One assay has as its system Candida albicans. In words: Minimum inhibitory concentration against Candida albicans in Sabouraud dextrose broth by using […]. Type of assay: functional.
A further assay has as its system Trichophyton benhamiae. In words: Minimum inhibitory concentration against Trichophyton mentagrophytes in Sabouraud dextrose broth by using […]. The format is functional, Arthroderma benhamiae.

Values after ≈ are worked out from the molar mass of the structure shown.

For the molecule `O=c1nc(-c2ccc3c(c2)OCO3)sc(=O)[nH]1`, the results for the MIC against Candida albicans and in the assay with Trichophyton benhamiae were more than 250 µg/mL and 125 µg/mL (≈ 500 µM), respectively.

As for `Cc1ccc(-c2nc(=O)[nH]c(=O)s2)cc1`, the MIC against Candida albicans is more than 250 µg/mL; against Trichophyton benhamiae it was less than 2 µg/mL.

In the case of `O=c1nc(-c2cccs2)sc(=O)[nH]1`, the minimal inhibitory concentration (MIC) against Candida albicans is 62 µg/mL (≈ 292 µM); with Trichophyton benhamiae it was 2 µg/mL (≈ 9.42 µM).

For the molecule `O=c1nc(-c2ccc(Cl)cc2)sc(=O)[nH]1`, the results for the minimum inhibitory concentration (MIC) in the assay on Candida albicans and against Trichophyton benhamiae were 15 µg/mL (≈ 62.3 µM) and 4 µg/mL (≈ 16.6 µM), respectively.

Turning to `CC(C)c1nc(=O)[nH]c(=O)s1`, the MIC in the assay with Candida albicans turned out to be 81 µg/mL (≈ 470 µM); in the assay on Trichophyton benhamiae, 15 µg/mL (≈ 87.1 µM).

For `COc1ccc(-c2nc(=O)[nH]c(=O)s2)cc1`, the values for the MIC with Candida albicans and in the assay with Trichophyton benhamiae were 125 µg/mL (≈ 529 µM) and 8 µg/mL (≈ 33.9 µM), respectively.

For the molecule `O=c1nc(Cc2cccnc2)sc(=O)[nH]1`, the MIC is 62 µg/mL (≈ 280 µM) in the assay on Candida albicans and 8 µg/mL (≈ 36.2 µM) against Trichophyton benhamiae.

On to `CN(C)c1ccc(-c2nc(=O)[nH]c(=O)s2)cc1`, for which the MIC in the assay with Candida albicans is more than 125 µg/mL; against Trichophyton benhamiae, 62 µg/mL (≈ 249 µM).

Consider `O=c1nc(-c2ccco2)sc(=O)[nH]1`, for which the values for the MIC with Candida albicans and in the assay with Trichophyton benhamiae were 15 µg/mL (≈ 76.5 µM) and less than 2 µg/mL, respectively.

For the molecule `O=c1nc(Cc2ccc3c(c2)OCO3)sc(=O)[nH]1`, the results for the MIC against Candida albicans and in the assay with Trichophyton benhamiae were 125 µg/mL (≈ 473 µM) and 4 µg/mL (≈ 15.1 µM), respectively.

For `CC(=O)c1ccc(-c2nc(=O)[nH]c(=O)s2)cc1`, the MIC was 31 µg/mL (≈ 125 µM) with Candida albicans and less than 2 µg/mL against Trichophyton benhamiae.

With `O=c1nc(-c2ccccc2)sc(=O)[nH]1`, the figures for the MIC with Candida albicans and with Trichophyton benhamiae were 8 µg/mL (≈ 38.8 µM) and less than 2 µg/mL, respectively.

As to `O=c1nc(Cc2ccccc2)sc(=O)[nH]1`, the MIC against Candida albicans is 125 µg/mL (≈ 568 µM); in the assay with Trichophyton benhamiae it was less than 2 µg/mL.

Take `Oc1c(I)cc(Cl)c2cccnc12` [CLIOQUINOL]: the results for the MIC in the assay with Candida albicans and in the assay with Trichophyton benhamiae were 1 µg/mL (≈ 3.27 µM) and 4 µg/mL (≈ 13.1 µM), respectively.
